Measured values taken from patent publication US12589158B2 (priority 2022, dated 2026).
Like-named read-outs stand apart in the source and are kept apart here.

Columns and labels:
[1] = Pharmacokinetics following single administration in SD rat; set-up: species or system SD rats; details: in vivo, sc, 50 nmol/kg
Method: The compound is administrated to male SD rats (230-268 g, n=3) at a dose of 50.0 nmol/kg (s.c.) or 25.0 nmol/kg (i.v.). […] 30.0 μL of thawed plasma sample is taken. 150 μL of acetonitrile solution (containing 5 ng mL^−1 Verapamil, 50 ng·mL^−1 Glibenclamide, 200 ng·mL^−1 Tolbutamide and 200 ng·mL^−1 Diclofenac) are added to precipitate protein. The mixture is vortexed for 5 minutes, and centrifuged at 3700 rpm for 8 minutes. 70.0 μL of the supernatant is taken, into which 70.0 μL of 0.5% aqueous formic acid solution is added. The mixture is vortexed for 5 minutes. 15 μL of the mixture solution is sampled and injected into the LC-MS/MS to determine the drug concentration in plasma. 20.0 μL of thawed plasma sample is taken. 60 μL of acetonitrile solution (containing 5 ng mL^−1 Verapamil, 50 ng·mL^−1 Glibenclamide, 200 ng·mL^−1 Tolbutamide and 200 ng·mL^−1 Diclofenac) are added to precipitate protein. […] The mixture is vortexed for 10 minutes. 10.0 μL of the mixture solution is sampled and injected into the LC-MS/MS to determine the drug concentration in plasma. 30.0 μL of thawed plasma sample is taken. 150 μL of acetonitrile solution (containing 5 ng mL^−1 Verapamil, 50 ng mL^−1 Glibenclamide, 200 ng·mL^−1 Tolbutamide and 200 ng·mL^−1 Diclofenac) are added to precipitate protein. The mixture is vortexed for 5 minutes, and centrifuged at 3700 rpm for 8 minutes. 70.0 μL of the supernatant is taken, into which 70.0 μL of 0.5% aqueous formic acid solution is added. The mixture is vortexed for 5 minutes. 10.0 μL of the mixture solution is sampled and injected into the LC-MS/MS to determine the drug concentration in plasma.

[2] = Pharmacokinetics in C57 mice; details: in vivo
Method: After subcutaneous or intravenous administration to C57 mice, plasma is collected and the drug concentration in plasma is determined to illustrate the in vivo pharmacokinetic properties of the compound according to the present invention. […] 20.0 μL of thawed plasma sample is taken. 20 μL of 50% aqueous methanol solution (containing 100 ng mL^−1 internal standard) and 60 μL of acetonitrile are added sequentially to precipitate protein. The mixture is vortexed for 5 minutes, and centrifuged at 3700 rpm for 8 minutes. 50.0 μL of the supernatant is taken, into which 50.0 μL of 0.5% aqueous formic acid solution is added. The mixture is vortexed for 5 minutes. 50 μL of the mixture solution is sampled and injected into the LC-MS/MS to determine the drug concentration in plasma.

[3] = Pharmacokinetics in cynomolgus monkeys; details: cynomolgus monkey, in vivo
Method: After subcutaneous or intravenous administration to cynomolgus monkeys, plasma is collected and the drug concentration in plasma is determined to illustrate the in vivo pharmacokinetic properties of the compound according to the present invention. The compound is dissolved in 1.4% PG in 8 mM Na2HPO4 Buffer (pH 7.39), and filtered through a filter membrane (PTFE, 0.45 μm) to obtain 25 and 12.5 nmol/mL solution of the compound respectively. The obtained solutions are administered to cynomolgus monkeys (4-8 kg) at a dose of 25 nmol/kg subcutaneously (s.c.) or 12.5 nmol/kg intravenously (i.v.). […] The blood samples are centrifuged at 2200 g for 10 minutes to obtain a plasma, which is stored at −90° C. to −60° C. for further analysis and assay.
70.0 μL of thawed plasma sample is taken. 70 μL of acetonitrile (containing 1 ng/ml of the internal standard) is added to precipitate protein. The mixture is vortexed for 1 minute, and centrifuged at 14000 rpm for 10 minutes. 60.0 μL of the supernatant is taken, into which 60.0 μL of 0.5% aqueous formic acid solution is added. The mixture is vortexed for 5 minutes. 10 μL of the mixture solution is sampled and injected into the LC-MS/MS to determine the drug concentration in plasma.
Based on the drug concentration in plasma of the compounds in the cynomolgus monkeys, the pharmacokinetic parameters are calculated by applying the software Winnolin 8.2 in a non-compartmental model, and the results are shown in Table 9 and Table 10 below.

[4] = type: in vivo; details: rat, in vivo, male SD rats
Method: (§1) 77 SD male rats (SPF grade) are selected and randomly divided into 10 groups based on body weight. Group 1 is the vehicle control group, including 5 animals. […] Group 5 to Group 7 are the groups administrated with the test substance 1; and Group 8 to Group 10 are the groups administrated with the test substance 2, each group including 8 animals, wherein 5 animals for primary test, and 3 animals for toxicokinetics test, and the administration dose is 1, 3 and 10 mg/kg respectively. Each of the above groups is continuously administered twice a week for 2 weeks (administrating at Day 1, Day 5, Day 8, Day 12 and Day 15).
(§2) During the experiment, the cage condition monitoring, detailed clinical observations, determination of the food consumption, determination of body weight, measurement of the blood biochemical and hematology indicator, investigation of the gross anatomy, weighing of the organ, studying on toxicokinetic are performed on all the groups of the animals.
(§3) Original data during each time period is tabulated. The average values and standard deviations and/or group change are calculated for each assay endpoint based on the group and sex. For each endpoint, the administrated group will be compared with the control group in the following aspect. A logarithmic conversion is performed to the endpoint data as desired prior to the start of the specific analyses.

SD male rats = type: in vivo; details: for Toxicokinetic: Cmax and AUC versus dose: male SD rats, 1, 3, 10 mg/kg; for Toxicokinetic: accumulation: male SD rats, continuously administered twice a week for 2 weeks; for Safety Window (based on dosage): rat MTD for 2 weeks vs efficacy dose in db/db mice; for Safety Window (based on exposure AUClast) / dose at which decrease of the body weight is observed after the first administration: rat, in vivo
Method: as §1, §2, §3

[5] = in vivo
[6] = continuously administered twice a week for 2 weeks

## CC[C@H](C)[C@H](NC(=O)C(C)(C)NC(=O)[C@H](Cc1ccc(O)cc1)NC(=O)[C@H](CC(=O)O)NC(=O)[C@H](CO)NC(=O)[C@@H](NC(=O)C(C)(Cc1ccccc1)NC(=O)[C@@H](NC(=O)CNC(=O)[C@H](CCC(=O)O)NC(=O)C(C)(C)NC(=O)[C@@H](N)Cc1ccc(O)cc1)[C@@H](C)O)[C@@H](C)O)C(=O)NC(C)(C)C(=O)N[C@@H](CC(C)C)C(=O)N[C@@H](CC(=O)O)C(=O)N[C@@H](CCCCN)C(=O)N[C@@H](CCC(N)=O)C(=O)N[C@@H](C)C(=O)N[C@@H](CCC(N)=O)C(=O)N[C@@H](C)C(=O)N[C@@H](CCC(=O)O)C(=O)N[C@@H](Cc1ccccc1)C(=O)N[C@H](C(=O)N[C@@H](CCCCNC(=O)COCCOCCNC(=O)COCCOCCNC(=O)CC[C@H](NC(=O)CCCCCCCCCCCCCCCCCCCCC(=O)O)C(=O)O)C(=O)N[C@@H](Cc1c[nH]c2ccccc12)C(=O)N[C@@H](CC(C)C)C(=O)N[C@@H](CC(C)C)C(=O)N[C@@H](CCCCN)C(=O)NCC(=O)NCC(=O)N1CCC[C@H]1C(=O)N[C@@H](CO)C(=O)N[C@@H](CO)C(=O)NCC(=O)N[C@@H](C)C(=O)N1CCC[C@H]1C(=O)N1CCC[C@H]1C(=O)N1CCC[C@H]1C(=O)N[C@@H](CO)C(=O)N[C@@H](CCCCN)C(N)=O)C(C)C (stereo partly shown) [P014]
[1]
  MRT inf: 30 ± 1.01 h
  MRT last: 26.2 ± 0.781 h
[2]; mouse, iv
  MRT inf: 19.2 h
  MRT last: 15.7 h
[2]; mouse, sc
  MRT inf: 30.3 h
  MRT last: 22.9 h
[3]; sc, 25 nmol/kg
  MRT inf: 77.4 ± 13.5 h
  MRT last: 74.2 ± 13.8 h
[4]; MTD for 2 weeks, twice a week
  MTD: 1.98 µmol/kg
[4]; [6]
  MTD: > 10 mg/kg
SD male rats
  Toxicokinetic: Cmax and AUC versus dose: increase nearly proportionally to the dose
  Toxicokinetic: accumulation: no substantial accumulation
  Safety Window (based on dosage): 1319
  Safety Window (based on exposure AUClast): 596
  dose at which decrease of the body weight is observed after the first administration: ≥ 1 mg/kg

## CC[C@H](C)[C@H](NC(=O)C(C)(C)NC(=O)[C@H](Cc1ccc(O)cc1)NC(=O)[C@H](CC(=O)O)NC(=O)[C@H](CO)NC(=O)[C@@H](NC(=O)C(C)(Cc1ccccc1)NC(=O)[C@@H](NC(=O)CNC(=O)[C@H](CCC(=O)O)NC(=O)C(C)(C)NC(=O)[C@@H](N)Cc1ccc(O)cc1)[C@@H](C)O)[C@@H](C)O)C(=O)NC(C)(C)C(=O)N[C@@H](CC(C)C)C(=O)N[C@@H](CC(=O)O)C(=O)N[C@@H](CCCCN)C(=O)N[C@@H](CCC(N)=O)C(=O)N[C@@H](C)C(=O)N[C@@H](CCC(N)=O)C(=O)N[C@@H](C)C(=O)N[C@@H](CCC(=O)O)C(=O)N[C@@H](Cc1ccccc1)C(=O)N[C@H](C(=O)N[C@@H](CCCCN)C(=O)N[C@@H](Cc1c[nH]c2ccccc12)C(=O)N[C@@H](CC(C)C)C(=O)N[C@@H](CC(C)C)C(=O)N[C@@H](CCCCNC(=O)COCCOCCNC(=O)COCCOCCNC(=O)COCCOCCNC(=O)CC[C@H](NC(=O)CCCCCCCCCCCCCCCCCCCCC(=O)O)C(=O)O)C(=O)NCC(=O)NCC(=O)N1CCC[C@H]1C(=O)N[C@@H](CO)C(=O)N[C@@H](CO)C(=O)NCC(=O)N[C@@H](C)C(=O)N1CCC[C@H]1C(=O)N1CCC[C@H]1C(=O)N1CCC[C@H]1C(=O)N[C@@H](CO)C(=O)N[C@@H](CCCCN)C(N)=O)C(C)C (stereo partly shown) [P020]
[1]
  MRT inf: 37.1 ± 0.636 h
  MRT last: 29.5 ± 4.68 h
[2]; mouse, iv
  MRT inf: 21.8 h
  MRT last: 16.8 h
[2]; mouse, sc
  MRT inf: 29.4 h
  MRT last: 21.8 h
[3]; sc, 25 nmol/kg
  MRT inf: 103 ± 13.1 h
  MRT last: 97.5 ± 9.67 h

## CC[C@H](C)[C@H](NC(=O)[C@H](CC(C)C)NC(=O)[C@H](Cc1c[nH]c2ccccc12)NC(=O)[C@H](CCC(N)=O)NC(=O)[C@@H](NC(=O)[C@H](Cc1ccccc1)NC(=O)[C@H](C)NC(=O)[C@H](CCCCNC(=O)COCCOCCNC(=O)COCCOCCNC(=O)CC[C@H](NC(=O)CCCCCCCCCCCCCCCCCCC(=O)O)C(=O)O)NC(=O)[C@H](CCC(N)=O)NC(=O)[C@H](C)NC(=O)[C@@H](NC(=O)[C@H](CCCCN)NC(=O)[C@H](CC(=O)O)NC(=O)[C@H](CC(C)C)NC(=O)C(C)(C)NC(=O)[C@@H](NC(=O)[C@H](CO)NC(=O)[C@H](Cc1ccc(O)cc1)NC(=O)[C@H](CC(=O)O)NC(=O)[C@H](CO)NC(=O)[C@@H](NC(=O)[C@H](Cc1ccccc1)NC(=O)[C@@H](NC(=O)CNC(=O)[C@H](CCC(=O)O)NC(=O)C(C)(C)NC(=O)[C@@H](N)Cc1ccc(O)cc1)[C@@H](C)O)[C@@H](C)O)[C@@H](C)CC)[C@@H](C)CC)C(C)C)C(=O)N[C@@H](C)C(=O)NCC(=O)NCC(=O)N1CCC[C@H]1C(=O)N[C@@H](CO)C(=O)N[C@@H](CO)C(=O)NCC(=O)N[C@@H](C)C(=O)N1CCC[C@H]1C(=O)N1CCC[C@H]1C(=O)N1CCC[C@H]1C(=O)N[C@@H](CO)C(N)=O [Tirzepatide]
[1]; male, SD
  AUC(0-inf): 3.67 ± 1.19 µM·h
  AUC(0-t): 3.61 ± 1.2 µM·h
  Cmax: 128 ± 42.8 nM
  MRT inf: 20.3 ± 0.755 h
  MRT last: 19 ± 0.265 h
  Tmax: 7.33 ± 1.15 h
  half-life: 11.4 ± 1.79 h
[2]; C57, mouse, iv
  AUC(0-inf): 12800 ng·h/mL
  AUC(0-t): 12700 ng·h/mL
  C0: 1900 ng/mL
  MRT inf: 12 h
  MRT last: 11.4 h
  half-life: 10.5 h
[2]; C57, mouse, sc
  AUC(0-inf): 19700 ng·h/mL
  AUC(0-t): 19400 ng·h/mL
  Cmax: 871 ng/mL
  MRT inf: 15.3 h
  MRT last: 14.5 h
  Tmax: 6 h
  half-life: 9.21 h
[3]; iv, 12.5 nmol/kg
  AUC(0-inf): 58500 ± 11900 ng·h/mL
  AUC(0-t): 57600 ± 11800 ng·h/mL
  C0: 1170 ± 160 ng/mL
  MRT inf: 74.3 ± 8.76 h
  MRT last: 68.3 ± 8.61 h
  half-life: 59.5 ± 5.22 h
[3]; sc, 25 nmol/kg
  AUC(0-inf): 150000 ± 39100 ng·h/mL
  AUC(0-t): 148000 ± 38200 ng·h/mL
  Cmax: 1300 ± 300 ng/mL
  MRT inf: 105 ± 7.58 h
  MRT last: 99.6 ± 6.26 h
  Tmax: 22.7 ± 10.1 h
  half-life: 62.5 ± 6.07 h
[4]; MTD for 2 weeks, twice a week
  MTD: 2.08 µmol/kg
[4]; [6]
  MTD: > 10 mg/kg
SD male rats
  Toxicokinetic: Cmax and AUC versus dose: increase nearly proportionally to the dose
  Toxicokinetic: accumulation: no substantial accumulation
  Safety Window (based on dosage): 416
  Safety Window (based on exposure AUClast): 130
  dose at which decrease of the body weight is observed after the first administration: ≥ 3 mg/kg
[5]
  heart rate recovery time: > 120 h
